ChEMBL document CHEMBL5465560, “Selectivity Literature for EUbOPEN Chemogenomic Library” (2024)
Each block holds one compound with its values, some of them ahead of it.

Key:
[1] = biological target: Ephrin type-A receptor 2 (Homo sapiens) (UniProt P29317); assay: Selectivity interaction (Ambit KINOMEscan and KiNATiv profiling in Jurkat cells) EUB0000090b EPHA2; type: cell-based; settings: at 1 µM
[2] = biological target: T1, 3-phosphoinositide-dependent protein kinase 1 (Homo sapiens) (UniProt O15530); assay: Selectivity interaction (KinomeScan (DiscoverX)) EUB0001079a PDPK1; settings: at 1 µM
T1 sequence (whole entry): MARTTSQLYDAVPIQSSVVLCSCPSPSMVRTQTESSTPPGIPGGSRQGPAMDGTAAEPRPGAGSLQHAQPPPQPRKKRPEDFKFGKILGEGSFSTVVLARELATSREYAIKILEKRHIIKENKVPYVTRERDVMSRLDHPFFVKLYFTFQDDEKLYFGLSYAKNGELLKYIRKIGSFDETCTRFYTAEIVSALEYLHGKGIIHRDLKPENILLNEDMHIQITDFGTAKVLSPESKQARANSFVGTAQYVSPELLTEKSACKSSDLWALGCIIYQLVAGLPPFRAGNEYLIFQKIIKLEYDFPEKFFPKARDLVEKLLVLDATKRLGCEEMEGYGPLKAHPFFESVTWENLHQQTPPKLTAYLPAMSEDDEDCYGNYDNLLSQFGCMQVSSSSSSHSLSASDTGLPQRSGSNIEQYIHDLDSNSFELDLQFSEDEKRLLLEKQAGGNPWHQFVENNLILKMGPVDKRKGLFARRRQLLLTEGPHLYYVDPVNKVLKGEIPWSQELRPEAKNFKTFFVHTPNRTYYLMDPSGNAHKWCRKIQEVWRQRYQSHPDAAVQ

[3] = biological target: Homeodomain-interacting protein kinase 1 (Homo sapiens, UniProt Q86Z02); assay: Selectivity interaction (SelectScreen profiling (Invitrogen)) EUB0000607a HIPK1; settings: at 2 µM
[4] = biological target: T2, SNF-related serine/threonine-protein kinase (Homo sapiens) (UniProt Q9NRH2); assay: Selectivity interaction (ActivX KiNativ screen (kinase selectivity in THP-1 cell lysates)) EUB0000639a SNRK; type: subcellular; settings: lysate
T2 sequence (whole entry): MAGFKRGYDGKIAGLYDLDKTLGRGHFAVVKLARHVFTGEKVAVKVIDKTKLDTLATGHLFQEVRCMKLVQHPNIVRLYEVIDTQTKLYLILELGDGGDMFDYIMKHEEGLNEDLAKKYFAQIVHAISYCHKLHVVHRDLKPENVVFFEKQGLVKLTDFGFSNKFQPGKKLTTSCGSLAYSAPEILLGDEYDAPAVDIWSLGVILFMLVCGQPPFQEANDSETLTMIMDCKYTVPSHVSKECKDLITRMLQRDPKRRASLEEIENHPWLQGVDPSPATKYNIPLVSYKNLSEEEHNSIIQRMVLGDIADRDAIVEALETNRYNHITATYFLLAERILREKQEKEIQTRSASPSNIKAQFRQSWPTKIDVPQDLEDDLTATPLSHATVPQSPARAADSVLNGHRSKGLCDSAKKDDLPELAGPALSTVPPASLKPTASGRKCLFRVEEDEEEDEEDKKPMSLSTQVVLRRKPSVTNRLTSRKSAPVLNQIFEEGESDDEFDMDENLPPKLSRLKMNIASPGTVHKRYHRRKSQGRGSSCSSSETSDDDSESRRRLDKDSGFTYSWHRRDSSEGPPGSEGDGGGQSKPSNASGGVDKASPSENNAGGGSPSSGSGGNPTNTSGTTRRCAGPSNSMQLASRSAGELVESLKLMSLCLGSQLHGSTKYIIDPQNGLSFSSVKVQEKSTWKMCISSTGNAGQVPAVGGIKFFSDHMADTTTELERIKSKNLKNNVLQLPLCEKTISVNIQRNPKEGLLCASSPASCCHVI

[5] = tested on: Tyrosine-protein kinase ABL1 (Homo sapiens), P00519 [E255K]; assay: (§1) Selectivity interaction (ProQinase) EUB0000171b ABL1
[6] = tested on: Tyrosine-protein kinase ABL1 (Homo sapiens), P00519 [T315I]; assay: as §1
[7] = tested on: Tyrosine-protein kinase ABL1 (Homo sapiens), P00519 [G250E]; assay: as §1
[8] = biological target: Tyrosine-protein kinase ABL1 (Homo sapiens, UniProt P00519); assay: as §1
[9] = tested on: Tyrosine-protein kinase ABL1 (Homo sapiens), P00519 [Q252H]; assay: as §1
[10] = tested on: Tyrosine-protein kinase ABL1 (Homo sapiens), P00519 [H396P]; assay: as §1
[11] = tested on: Tyrosine-protein kinase ABL1 (Homo sapiens), P00519 [Y253F]; assay: as §1
[12] = tested on: Tyrosine-protein kinase ABL1 (Homo sapiens), P00519 [M351T]; assay: as §1
[13] = tested on: Tyrosine-protein kinase ABL1 (Homo sapiens), P00519 [F317I]; assay: as §1
[14] = biological target: Myosin light chain kinase, smooth muscle (Homo sapiens, UniProt Q15746); assay: Selectivity interaction (ProQinase) EUB0000171b MYLK
[15] = biological target: T3, cGMP-dependent protein kinase 1 (Homo sapiens) (UniProt Q13976); assay: Selectivity interaction (KinomeScan (DiscoverX)) EUB0001049a PRKG1; settings: at 1 µM
T3 sequence (whole entry): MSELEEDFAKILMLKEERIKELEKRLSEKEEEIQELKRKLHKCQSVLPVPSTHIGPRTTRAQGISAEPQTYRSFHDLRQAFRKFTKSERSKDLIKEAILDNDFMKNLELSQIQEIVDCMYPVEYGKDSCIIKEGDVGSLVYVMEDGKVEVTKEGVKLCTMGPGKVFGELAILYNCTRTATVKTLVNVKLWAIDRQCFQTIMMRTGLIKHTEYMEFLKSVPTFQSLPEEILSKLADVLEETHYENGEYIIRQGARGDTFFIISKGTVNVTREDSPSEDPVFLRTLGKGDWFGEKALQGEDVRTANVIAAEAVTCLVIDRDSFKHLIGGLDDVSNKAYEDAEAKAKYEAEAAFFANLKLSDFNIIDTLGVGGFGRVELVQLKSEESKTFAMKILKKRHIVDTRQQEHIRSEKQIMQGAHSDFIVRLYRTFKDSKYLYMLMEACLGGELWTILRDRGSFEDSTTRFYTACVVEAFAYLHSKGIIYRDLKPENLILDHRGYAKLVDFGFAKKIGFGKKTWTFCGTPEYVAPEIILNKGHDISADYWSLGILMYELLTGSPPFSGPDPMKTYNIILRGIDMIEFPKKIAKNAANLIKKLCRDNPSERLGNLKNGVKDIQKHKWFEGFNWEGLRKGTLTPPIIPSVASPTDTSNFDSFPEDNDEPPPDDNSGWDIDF

Sequence of Myosin light chain kinase, smooth muscle (Q15746 whole entry): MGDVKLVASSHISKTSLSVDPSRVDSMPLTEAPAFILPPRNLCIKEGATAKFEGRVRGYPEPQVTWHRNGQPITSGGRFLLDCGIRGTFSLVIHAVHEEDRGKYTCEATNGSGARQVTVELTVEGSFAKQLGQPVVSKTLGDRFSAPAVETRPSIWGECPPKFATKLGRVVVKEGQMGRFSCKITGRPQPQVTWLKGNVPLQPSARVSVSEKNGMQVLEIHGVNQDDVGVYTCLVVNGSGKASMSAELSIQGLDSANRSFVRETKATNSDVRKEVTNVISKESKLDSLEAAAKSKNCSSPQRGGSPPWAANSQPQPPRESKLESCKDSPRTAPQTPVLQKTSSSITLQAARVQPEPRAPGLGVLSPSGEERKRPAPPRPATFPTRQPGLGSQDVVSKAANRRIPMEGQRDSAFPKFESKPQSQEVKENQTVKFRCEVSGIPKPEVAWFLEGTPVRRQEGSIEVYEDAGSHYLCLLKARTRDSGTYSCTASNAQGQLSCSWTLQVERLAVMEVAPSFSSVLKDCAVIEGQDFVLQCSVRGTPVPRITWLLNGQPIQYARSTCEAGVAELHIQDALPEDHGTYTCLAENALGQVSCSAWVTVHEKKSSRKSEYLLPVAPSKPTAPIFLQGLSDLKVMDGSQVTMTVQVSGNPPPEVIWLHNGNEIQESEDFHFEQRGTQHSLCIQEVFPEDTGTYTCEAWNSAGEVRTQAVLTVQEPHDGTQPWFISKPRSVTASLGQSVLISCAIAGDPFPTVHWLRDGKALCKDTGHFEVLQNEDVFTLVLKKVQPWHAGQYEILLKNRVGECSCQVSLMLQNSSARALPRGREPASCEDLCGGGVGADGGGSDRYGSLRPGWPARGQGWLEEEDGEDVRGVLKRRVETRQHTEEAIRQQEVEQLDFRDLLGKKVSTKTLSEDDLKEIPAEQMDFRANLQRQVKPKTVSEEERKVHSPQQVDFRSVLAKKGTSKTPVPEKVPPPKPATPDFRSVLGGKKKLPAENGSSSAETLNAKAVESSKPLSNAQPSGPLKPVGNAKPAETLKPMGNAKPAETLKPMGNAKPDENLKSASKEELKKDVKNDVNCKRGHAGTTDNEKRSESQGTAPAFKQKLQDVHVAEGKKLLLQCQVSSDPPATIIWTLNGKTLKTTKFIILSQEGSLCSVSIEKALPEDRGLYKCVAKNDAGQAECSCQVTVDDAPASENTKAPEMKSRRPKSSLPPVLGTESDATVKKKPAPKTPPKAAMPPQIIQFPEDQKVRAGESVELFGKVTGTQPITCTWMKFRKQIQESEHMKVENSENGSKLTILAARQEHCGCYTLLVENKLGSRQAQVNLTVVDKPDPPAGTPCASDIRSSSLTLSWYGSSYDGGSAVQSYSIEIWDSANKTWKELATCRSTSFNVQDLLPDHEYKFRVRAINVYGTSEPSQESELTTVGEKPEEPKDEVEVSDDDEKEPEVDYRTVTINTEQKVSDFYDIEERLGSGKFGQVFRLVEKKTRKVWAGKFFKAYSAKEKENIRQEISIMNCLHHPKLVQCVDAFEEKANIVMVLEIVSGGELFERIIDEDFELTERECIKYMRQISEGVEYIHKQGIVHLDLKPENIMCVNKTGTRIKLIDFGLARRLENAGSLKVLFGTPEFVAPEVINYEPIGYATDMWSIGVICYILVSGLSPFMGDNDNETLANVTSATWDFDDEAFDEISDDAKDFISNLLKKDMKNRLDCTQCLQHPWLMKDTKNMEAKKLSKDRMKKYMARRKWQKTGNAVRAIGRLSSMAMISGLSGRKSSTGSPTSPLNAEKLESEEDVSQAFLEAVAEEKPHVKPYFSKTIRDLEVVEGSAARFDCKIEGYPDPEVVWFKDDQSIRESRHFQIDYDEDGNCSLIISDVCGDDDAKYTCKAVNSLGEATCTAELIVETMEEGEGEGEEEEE
Sequence of Ephrin type-A receptor 2 (Homo sapiens) (P29317 whole entry): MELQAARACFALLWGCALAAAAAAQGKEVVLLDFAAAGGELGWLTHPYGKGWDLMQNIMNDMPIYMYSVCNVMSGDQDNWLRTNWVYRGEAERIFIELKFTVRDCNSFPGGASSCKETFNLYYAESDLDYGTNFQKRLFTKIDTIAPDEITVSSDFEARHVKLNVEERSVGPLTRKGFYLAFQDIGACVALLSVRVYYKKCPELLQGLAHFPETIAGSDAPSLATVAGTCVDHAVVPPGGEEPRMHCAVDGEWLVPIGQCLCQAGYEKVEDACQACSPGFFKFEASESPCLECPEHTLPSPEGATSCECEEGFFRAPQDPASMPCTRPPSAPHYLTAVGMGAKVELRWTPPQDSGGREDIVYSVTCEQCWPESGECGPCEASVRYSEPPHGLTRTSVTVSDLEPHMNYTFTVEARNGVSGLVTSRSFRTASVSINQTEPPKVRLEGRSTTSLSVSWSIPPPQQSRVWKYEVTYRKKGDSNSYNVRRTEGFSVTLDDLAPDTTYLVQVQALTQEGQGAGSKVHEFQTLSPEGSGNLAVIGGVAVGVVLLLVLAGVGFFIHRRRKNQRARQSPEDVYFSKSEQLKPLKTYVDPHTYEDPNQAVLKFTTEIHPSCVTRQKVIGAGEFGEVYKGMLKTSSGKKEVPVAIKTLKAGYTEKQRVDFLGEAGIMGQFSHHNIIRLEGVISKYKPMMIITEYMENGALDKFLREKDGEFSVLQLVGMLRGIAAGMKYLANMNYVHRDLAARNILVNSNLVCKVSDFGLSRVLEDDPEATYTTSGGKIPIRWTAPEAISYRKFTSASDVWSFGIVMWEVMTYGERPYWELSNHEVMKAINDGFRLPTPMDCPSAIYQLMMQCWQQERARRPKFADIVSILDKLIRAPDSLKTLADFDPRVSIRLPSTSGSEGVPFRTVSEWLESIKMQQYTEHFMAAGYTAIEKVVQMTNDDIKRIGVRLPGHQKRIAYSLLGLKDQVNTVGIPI
Sequence of Homeodomain-interacting protein kinase 1 (Q86Z02 whole entry, looked up): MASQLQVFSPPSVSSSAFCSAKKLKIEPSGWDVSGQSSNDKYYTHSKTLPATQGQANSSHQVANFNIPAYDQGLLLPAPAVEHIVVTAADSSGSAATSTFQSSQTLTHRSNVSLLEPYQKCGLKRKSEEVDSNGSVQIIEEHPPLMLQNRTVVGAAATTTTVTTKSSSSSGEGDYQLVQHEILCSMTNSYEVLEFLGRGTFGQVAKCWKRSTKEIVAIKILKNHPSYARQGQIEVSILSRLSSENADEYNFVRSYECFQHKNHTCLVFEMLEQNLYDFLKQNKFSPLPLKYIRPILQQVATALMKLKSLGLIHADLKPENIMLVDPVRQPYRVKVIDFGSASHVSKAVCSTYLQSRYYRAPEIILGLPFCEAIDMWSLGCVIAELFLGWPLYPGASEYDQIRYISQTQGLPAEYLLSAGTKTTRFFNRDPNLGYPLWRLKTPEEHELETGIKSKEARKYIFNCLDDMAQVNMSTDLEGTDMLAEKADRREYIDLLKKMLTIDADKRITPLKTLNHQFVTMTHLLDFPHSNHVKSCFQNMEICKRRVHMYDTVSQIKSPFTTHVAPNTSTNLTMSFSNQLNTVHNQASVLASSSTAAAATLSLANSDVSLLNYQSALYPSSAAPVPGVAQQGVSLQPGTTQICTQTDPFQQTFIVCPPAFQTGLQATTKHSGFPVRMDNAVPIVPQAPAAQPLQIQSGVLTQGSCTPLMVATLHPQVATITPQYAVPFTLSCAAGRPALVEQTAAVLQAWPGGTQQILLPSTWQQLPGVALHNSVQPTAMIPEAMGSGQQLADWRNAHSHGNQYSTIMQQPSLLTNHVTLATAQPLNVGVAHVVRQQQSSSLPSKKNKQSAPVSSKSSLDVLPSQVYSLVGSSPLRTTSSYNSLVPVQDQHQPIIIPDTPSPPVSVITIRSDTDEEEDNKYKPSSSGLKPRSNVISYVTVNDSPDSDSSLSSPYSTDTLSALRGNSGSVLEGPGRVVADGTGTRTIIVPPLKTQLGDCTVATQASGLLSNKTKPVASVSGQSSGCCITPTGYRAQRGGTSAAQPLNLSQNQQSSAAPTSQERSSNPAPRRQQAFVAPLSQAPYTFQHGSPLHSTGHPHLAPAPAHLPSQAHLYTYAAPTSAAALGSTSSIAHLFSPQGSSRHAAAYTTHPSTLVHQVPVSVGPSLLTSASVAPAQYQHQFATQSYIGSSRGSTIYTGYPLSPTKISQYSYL

SMILES: CN(C)C/C=C/C(=O)Nc1ccc(C(=O)N2CCCC(Nc3ncc(Cl)c(-c4c[nH]c5ccccc45)n3)C2)cc1 (centres undefined)
% of control [1]: 98%

SMILES: Nc1cnc(N2CCc3cc(S(=O)(=O)Nc4c(F)cc(Cl)cc4F)cc(N4CCCC4=O)c32)nc1 [TP-020n]
% of control [2]: 98%

SMILES: CNC(=O)Nc1ccc(-c2nc(N3CC4CCC(C3)O4)c3cnn(C4CCC5(CC4)OCCO5)c3n2)cc1
% of inhibition [3]: 1%

% of inhibition ([4]; at 0.01 µM): -4.2%
% of inhibition ([4]; at 0.04 µM): 1.9%
% of inhibition ([4]; at 0.2 µM): 21.5%
% of inhibition ([4]; at 1 µM): 3.6%
% of inhibition ([4]; at 5 µM): 23.9%
SMILES: CC[C@@H]1[C@H](F)C(=O)N[C@@H]1COc1nccc2cc(C(N)=O)c(OC)cc12 [ZIMLOVISERTIB]

% of control ([5]; at 1 µM): 94%
% of control ([5]; at 5 µM): 88%
% of control ([6]; at 1 µM): 91%
% of control ([6]; at 5 µM): 82%
% of control ([7]; at 1 µM): 88%
% of control ([7]; at 5 µM): 89%
% of control ([8]; at 1 µM): 96%
% of control ([8]; at 5 µM): 71%
% of control ([9]; at 1 µM): 96%
% of control ([9]; at 5 µM): 65%
% of control ([10]; at 1 µM): 93%
% of control ([10]; at 5 µM): 71%
% of control ([11]; at 1 µM): 85%
% of control ([11]; at 5 µM): 64%
% of control ([12]; at 1 µM): 87%
% of control ([12]; at 5 µM): 61%
% of control ([13]; at 1 µM): 102%
% of control ([13]; at 5 µM): 82%
% of control ([14]; at 1 µM): 84%
% of control ([14]; at 5 µM): 60%
SMILES: C=CC(=O)Nc1cccc(C(=O)Nc2ccc(Nc3cc(-c4[nH]c(SC)nc4C)ccn3)cc2)c1

SMILES: COc1cc(Nc2nc(C)cc(-c3cnn4nc(OC)ccc34)n2)cc(C(F)(F)F)c1
% of control [15]: 92%
